These results are taken from US20250270251A1, “PROCESS FOR THE PREPARATION OF […] HAVING A DEFINITE PARTICLE SIZE DISTRIBUTION AND A IRREGULAR HEXAGON PLATES CRYSTAL HABIT” (F.I.S. - FABBRICA ITALIANA SINTETICI S.P.A., priority 2020, published 2025).

Common to all, as to format: physicochemical
A short description of series [1]: DSC comparative study of crystal habits. The following applies: irregular hexagon plates versus non-irregular hexagon plates crystals; from DSC onset and peak. How it is done:
DSC analysis was recorded with a Mettler DSC822e. A sample of compound was charged into a 40 μL aluminium crucible with a pinhole lid and was heated, under nitrogen (50 mL/min), at 10° C./min from 30 to 300° C.
DSC testing was performed in a sealed medium pressure stainless steel crucible. All the testing was performed by heating the sample from 30° C. at a rate of 10° C./minute up to a maximum temperature of 300° C.
(Differential scanning calorimetry records heat flow against a reference as temperature is scanned.)

Series [2] is described as follows: Particle size distribution (PSD) with a Malvern Mastersizer 3000. The method, then: Particle size distribution (PSD): In particular, particle size distribution was determined with a Malvern Mastersizer 3000, and the other parameters used are reported in table below: […]
The nature of series [3]: Microscopy analysis (SEM) for identification of crystal habit and size. The note with it: crystallized with a C2-C5 alkyl alcohol, examples 2 to 9. How it is done: The mean square weight means is determined by chord-length distribution analysis of Trenbolone Acetate of formula (I), in particular, was through by scanning electron microscopy (SEM).
Microscopy analysis: the solid of Trenbolone Acetate (I) was analysed by microscopy for identification of crystal habits.
Microscope was recorded with a Zeiss Evo MA10 scanning electron microscope. A sample of powder has been gold spattered and observed by SEM at different magnification, micrographs have been collected at same conditions and magnification (20 kV, HDBSD, Variable Pressure). All the samples have been observed after same treatment and same time after preparation.

[4] abbreviates: Example 12, crystallization from isopropanol, seed D10 4-12, D50 12-29, D90 <76 μm.
The mark [5] stands for this setting: Example 13, recrystallization from IPA, seed D10 2-5, D50 10-20, D90 25-51 μm.

Consider `CC(=O)O[C@H]1CC[C@H]2[C@@H]3CCC4=CC(=O)CCC4=C3C=C[C@]12C` [Compound (I), 17beta-acetoxy-estra-4,9,11-triene-3-one], for which, in series [1], the “thermodynamic stability of the crystal habit” value is on record as “thermodynamically more stable”. Further, the “PSD D50” value in series [2] (Example 2, crystallization from isopropanol, seeded at 20-25 °C) is reported as 67-130 μm; in series [2] (setting [4]), 67-130 μm; in series [2] (setting [5]) it was 67-130 μm. Also, the “PSD D10” value in series [2] (setting [4]) and in series [2] (setting [5]) was 15-40 μm in each case. Further, the entries for the “PSD D90” value in series [2] (setting [4]) and in series [2] (setting [5]) were 350 μm and 300 μm, respectively. The “size range of thin irregular hexagon plates” value in series [3] was 20-200 micron.
